PubChem BioAssay AID256 (DTP/NCI, 2004)
Several values for one entry are separate records, joined by “and”; a condition that tells them apart may be missing. Equal values may be shown once. Inconclusive results and toxic doses are left out. How the source made its calls: active means survival T/C of 150% or more; inactive means T/C below 125% in these data.

Tested on: CD2F1 mice, L1210 leukemia ip, survival T/C
Experiment: NCI In Vivo Anticancer Drug Screen. Data for tumor model L1210 Leukemia (intraperitoneal) in CD2F1 (CDF1) mice
Conditions: higher = longer survival
Outline: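 Vehicle-treated tumor-bearing mice served as controls (C) for compound-treated mice (T). Reported figure is T divided by C.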

[1] = endpoint: mean survival time, dose: 100.0 mg/kg/injection, schedule: Q04DX003 (ip), vehicle: saline with Tween-80
[2] = endpoint: mean survival time, dose: 100.0 mg/kg/injection, schedule: Q01DX001 (ip), vehicle: saline with Tween-80
[3] = endpoint: mean survival time, dose: 100.0 mg/kg/injection, schedule: Q01DX009 (ip), vehicle: saline with Tween-80
[4] = endpoint: mean survival time, dose: 200.0 mg/kg/injection, schedule: Q01DX001 (ip), vehicle: saline with Tween-80
[5] = endpoint: mean survival time, dose: 200.0 mg/kg/injection, schedule: Q01DX009 (ip), vehicle: saline with Tween-80
[6] = endpoint: mean survival time, dose: 200.0 mg/kg/injection, schedule: Q04DX003 (ip), vehicle: saline with Tween-80
[7] = endpoint: mean survival time, dose: 400.0 mg/kg/injection, schedule: Q01DX001 (ip), vehicle: saline with Tween-80
[8] = endpoint: mean survival time, dose: 400.0 mg/kg/injection, schedule: Q04DX003 (ip), vehicle: saline with Tween-80
[9] = endpoint: mean survival time, dose: 400.0 mg/kg/injection, schedule: Q01DX009 (ip), vehicle: saline with Tween-80
[10] = endpoint: mean survival time, dose: 25.0 mg/kg/injection, schedule: Q01DX001 (ip), vehicle: saline with Tween-80
[11] = endpoint: mean survival time, dose: 50.0 mg/kg/injection, schedule: Q01DX001 (ip), vehicle: saline with Tween-80

Measured: T/C

Nc1ccnn1CCO
inactive: endpoint: mean survival time, dose: 100.0 mg/kg/injection, schedule: Q04DX003 (ip), vehicle: water 102 % of control | endpoint: mean survival time, dose: 200.0 mg/kg/injection, schedule: Q04DX003 (ip), vehicle: water 101 % of control | endpoint: mean survival time, dose: 400.0 mg/kg/injection, schedule: Q04DX003 (ip), vehicle: water 101 % of control

C=CC[n+]1cccc2ccccc21
inactive: [1] 111 % of control

O=c1cc(-c2ccccc2)[nH]c(-c2ccccc2)c1
inactive: [2] 100 % of control | [3] 89 % of control | [1] 89 % of control | [4] 88 % of control | [5] 88 % of control | [6] 93 % of control | [7] 89 % of control | [8] 86 % of control

Nc1ccc2nsnc2c1
inactive: endpoint: mean survival time, dose: 50.0 mg/kg/injection, schedule: Q01DX001 (ip), vehicle: Klucel (hydroxypropylcellulose) (HPC) 105 % of control | endpoint: mean survival time, dose: 100.0 mg/kg/injection, schedule: Q01DX001 (ip), vehicle: Klucel (hydroxypropylcellulose) (HPC) 90 % of control | endpoint: mean survival time, dose: 200.0 mg/kg/injection, schedule: Q01DX001 (ip), vehicle: Klucel (hydroxypropylcellulose) (HPC) 103 % of control

COc1oc(C2C/C(=C/C(C)=C/C(C)=C/C(C)=C/c3ccc([N+](=O)[O-])cc3)CO2)c(C)c(=O)c1C (stereo not drawn)
inactive: endpoint: median survival time, dose: 0.25 mg/kg/injection, schedule: Q01DX009 (ip), vehicle: saline 104 % of control and 108 % of control | endpoint: median survival time, dose: 0.5 mg/kg/injection, schedule: Q01DX009 (ip), vehicle: saline 118 % of control and 124 % of control and 112 % of control | endpoint: median survival time, dose: 1.0 mg/kg/injection, schedule: Q01DX009 (ip), vehicle: saline 118 % of control and 124 % of control | endpoint: median survival time, dose: 2.0 mg/kg/injection, schedule: Q01DX009 (ip), vehicle: saline 120 % of control | endpoint: median survival time, dose: 4.0 mg/kg/injection, schedule: Q01DX009 (ip), vehicle: saline 103 % of control

Nc1ncnc2[nH]ncc12
inactive: endpoint: median survival time, dose: 3.0 mg/kg/injection, schedule: Q01DX009 (ip), vehicle: saline 100 % of control and 105 % of control | endpoint: median survival time, dose: 6.0 mg/kg/injection, schedule: Q01DX009 (ip), vehicle: saline 114 % of control and 111 % of control | endpoint: median survival time, dose: 12.0 mg/kg/injection, schedule: Q01DX009 (ip), vehicle: saline 121 % of control and 111 % of control

CC12CCC(=O)C(I)(I)C1=CCCC2=O (stereo not drawn)
inactive: [2] 91 % of control | [3] 88 % of control | [5] 88 % of control | [9] 87 % of control

NC(=O)c1ncn(C2OC(CO)C(O)C2O)c1C(N)=O (stereo not drawn)
inactive: endpoint: mean survival time, dose: 12.5 mg/kg/injection, schedule: Q01DX005 (ip), vehicle: water 102 % of control | endpoint: mean survival time, dose: 25.0 mg/kg/injection, schedule: Q01DX005 (ip), vehicle: water 112 % of control | endpoint: mean survival time, dose: 50.0 mg/kg/injection, schedule: Q01DX005 (ip), vehicle: water 107 % of control | endpoint: mean survival time, dose: 100.0 mg/kg/injection, schedule: Q01DX005 (ip), vehicle: water 104 % of control | endpoint: mean survival time, dose: 200.0 mg/kg/injection, schedule: Q01DX005 (ip), vehicle: water 112 % of control

CC(=O)Nc1cccc(Cl)c1
inactive: [2] 92 % of control | [3] 106 % of control | [1] 98 % of control and 103 % of control | [4] 100 % of control | [5] 96 % of control | [6] 98 % of control and 116 % of control | [7] 94 % of control | [9] 91 % of control | [8] 94 % of control and 109 % of control

CCOc1cc(NCCCN)c2nc(OCc3ccccc3)ccc2c1
inactive: endpoint: mean survival time, dose: 75.0 mg/kg/injection, schedule: Q01DX001 (ip), vehicle: saline 96 % of control

c1cc(C[N+]23CN4CN(CN(C4)C2)C3)cs1
inactive: [1] 91 % of control

Cc1ccc(NC(=O)Nc2cccc(CNC(=O)COc3ccc(Cl)cc3C(=O)O)c2)cc1S(=O)(=O)F
inactive: [10] 102 % of control | [11] 96 % of control | [2] 93 % of control | [4] 86 % of control | [7] 88 % of control

CN1COc2cc3c(cc2C1)OCN(C)C3
inactive: [2] 100 % of control | [4] 100 % of control

COC1OC(COC(C)=O)C(OC(C)=O)C(OC(C)=O)[CH]1[Hg][O]C(C)=O (stereo not drawn)
inactive: endpoint: mean survival time, dose: 6.25 mg/kg/injection, schedule: Q01DX009 (ip), vehicle: saline 106 % of control | endpoint: mean survival time, dose: 12.5 mg/kg/injection, schedule: Q01DX009 (ip), vehicle: saline 108 % of control | endpoint: mean survival time, dose: 25.0 mg/kg/injection, schedule: Q01DX009 (ip), vehicle: saline 97 % of control

COc1ccc(OCCC(=O)O)cc1
inactive: endpoint: mean survival time, dose: 50.0 mg/kg/injection, schedule: Q01DX009 (ip), vehicle: saline 119 % of control | endpoint: mean survival time, dose: 100.0 mg/kg/injection, schedule: Q01DX009 (ip), vehicle: saline 105 % of control | endpoint: mean survival time, dose: 200.0 mg/kg/injection, schedule: Q01DX009 (ip), vehicle: saline 105 % of control

Cc1ccc(NC(=O)C2CCC(C)(C(=O)O)C2(C)C)cc1 (stereo not drawn)
inactive: [1] 96 % of control | [6] 91 % of control

O=[N+]([O-])c1cccc(S(=O)(=O)SC(Cl)(Cl)Cl)c1
inactive: endpoint: mean survival time, dose: 6.25 mg/kg/injection, schedule: Q04DX003 (ip), vehicle: saline 102 % of control | endpoint: mean survival time, dose: 12.5 mg/kg/injection, schedule: Q04DX003 (ip), vehicle: saline 97 % of control | endpoint: mean survival time, dose: 25.0 mg/kg/injection, schedule: Q04DX003 (ip), vehicle: saline 102 % of control

CC12CCCCC1CCC(Br)C2=O (stereo not drawn)
inactive: [1] 102 % of control | [6] 100 % of control | [8] 102 % of control

Cc1cc(NC(=O)Nc2cc(Cl)ccc2C)no1
inactive: endpoint: mean survival time, dose: 50.0 mg/kg/injection, schedule: Q01DX009 (ip), vehicle: Klucel (hydroxypropylcellulose) (HPC) 98 % of control | endpoint: mean survival time, dose: 200.0 mg/kg/injection, schedule: Q01DX009 (ip), vehicle: Klucel (hydroxypropylcellulose) (HPC) 91 % of control

[CH-]=C([CH2-])C.[Ni][Br].c1ccc([PH+](c2ccccc2)c2ccccc2)cc1
inactive: [10] 101 % of control | [11] 101 % of control | [2] 108 % of control

Cc1cc(Cl)ccc1NS(=O)(=O)c1cccc([N+](=O)[O-])c1
inactive: [1] 97 % of control | [6] 93 % of control | [8] 90 % of control

O=C(Nc1ccccc1C(F)(F)F)c1cccc(Cl)c1
inactive: endpoint: mean survival time, dose: 100.0 mg/kg/injection, schedule: Q01DX009 (ip), vehicle: saline + alcohol 90 % of control | endpoint: mean survival time, dose: 100.0 mg/kg/injection, schedule: Q04DX003 (ip), vehicle: saline + alcohol 97 % of control | endpoint: mean survival time, dose: 200.0 mg/kg/injection, schedule: Q01DX009 (ip), vehicle: saline + alcohol 93 % of control | endpoint: mean survival time, dose: 200.0 mg/kg/injection, schedule: Q04DX003 (ip), vehicle: saline + alcohol 100 % of control | endpoint: mean survival time, dose: 400.0 mg/kg/injection, schedule: Q01DX009 (ip), vehicle: saline + alcohol 96 % of control | endpoint: mean survival time, dose: 400.0 mg/kg/injection, schedule: Q04DX003 (ip), vehicle: saline + alcohol 95 % of control

Nc1cc2c(cc1Br)-c1c(C(=O)O)cccc1C2O (stereo not drawn)
inactive: endpoint: median survival time, dose: 50.0 mg/kg/injection, schedule: Q01DX005 (ip), vehicle: sodium bicarbonate 100 % of control | endpoint: median survival time, dose: 100.0 mg/kg/injection, schedule: Q01DX005 (ip), vehicle: sodium bicarbonate 101 % of control | endpoint: median survival time, dose: 200.0 mg/kg/injection, schedule: Q01DX005 (ip), vehicle: sodium bicarbonate 113 % of control | endpoint: median survival time, dose: 400.0 mg/kg/injection, schedule: Q01DX005 (ip), vehicle: sodium bicarbonate 122 % of control | endpoint: median survival time, dose: 800.0 mg/kg/injection, schedule: Q01DX005 (ip), vehicle: sodium bicarbonate 122 % of control
